*1 amine or outer side, *2 acyl side, *3 side chain or, on linkers, in order; H or OH if unused. Where a SMILES comes first, the peptide text is derived from it. Bridges are numbered along the chain shown (N, C = ends). [ ]: non-standard residue; d: D form. The star is where a group is joined. hTyr(3S-OH,4S-OH,3'-OSO3H) = N[C@H](C(=O)O)[C@H](O)[C@@H](O)c1ccc(O)c(OS(=O)(=O)O)c1; Orn(4R-OH,5R-OH) = O=C([C@H](C[C@@H](O)[C@@H](O)N[*:3])N[*:1])[*:2]; Pro(3S-OH,4S-Me) = C[C@H]1CN[C@H](C(=O)O)[C@H]1O; X1 = CCCCCOc1ccc(-c2cc(-c3ccc(C(=O)*)cc3)no2)cc1; Gln(3R-OH) = NC(=O)C[C@@H](O)[C@H](N)C(=O)O; Hyp = O=C(O)[C@@H]1C[C@@H](O)CN1
Assays:
[1] = target: T1, Alpha-2A adrenergic receptor (Homo sapiens, UniProt P08913); type: functional, cell-based
T1 sequence (P08913 whole entry): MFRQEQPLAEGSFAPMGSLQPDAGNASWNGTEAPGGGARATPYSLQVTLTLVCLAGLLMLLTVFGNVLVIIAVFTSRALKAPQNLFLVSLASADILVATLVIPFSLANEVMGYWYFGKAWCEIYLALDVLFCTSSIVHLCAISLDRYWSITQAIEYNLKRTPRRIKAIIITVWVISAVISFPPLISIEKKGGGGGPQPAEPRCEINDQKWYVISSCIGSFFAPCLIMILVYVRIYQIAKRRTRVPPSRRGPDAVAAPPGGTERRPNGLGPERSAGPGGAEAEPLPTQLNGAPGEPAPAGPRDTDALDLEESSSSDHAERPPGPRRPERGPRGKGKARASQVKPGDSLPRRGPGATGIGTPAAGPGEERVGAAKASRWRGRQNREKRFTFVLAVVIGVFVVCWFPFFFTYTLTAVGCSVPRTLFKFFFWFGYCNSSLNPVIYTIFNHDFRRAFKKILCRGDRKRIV

[2] = target: T1, Alpha-2A adrenergic receptor; type: functional, cell-based; remark: listed apart in the source
[3] = target: T2, Muscarinic acetylcholine receptor M1 (Homo sapiens, UniProt P11229); type: functional
T2 sequence (P11229 whole entry): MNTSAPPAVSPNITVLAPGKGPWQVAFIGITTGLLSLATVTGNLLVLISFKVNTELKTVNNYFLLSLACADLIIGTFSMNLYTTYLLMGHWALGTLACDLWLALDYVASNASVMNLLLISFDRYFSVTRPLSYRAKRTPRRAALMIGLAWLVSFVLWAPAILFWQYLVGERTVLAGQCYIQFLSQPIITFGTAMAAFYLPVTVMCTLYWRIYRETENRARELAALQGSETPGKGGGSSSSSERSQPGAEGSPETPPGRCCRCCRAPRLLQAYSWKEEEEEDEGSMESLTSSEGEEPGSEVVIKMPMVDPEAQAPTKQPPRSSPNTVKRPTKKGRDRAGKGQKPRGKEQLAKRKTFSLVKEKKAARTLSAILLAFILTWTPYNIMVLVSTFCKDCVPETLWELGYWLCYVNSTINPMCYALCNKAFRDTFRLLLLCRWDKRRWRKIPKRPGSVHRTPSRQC

[4] = target: T3, Muscarinic acetylcholine receptor M2 (Homo sapiens, UniProt P08172); type: functional, cell-based
T3 sequence (P08172 whole entry): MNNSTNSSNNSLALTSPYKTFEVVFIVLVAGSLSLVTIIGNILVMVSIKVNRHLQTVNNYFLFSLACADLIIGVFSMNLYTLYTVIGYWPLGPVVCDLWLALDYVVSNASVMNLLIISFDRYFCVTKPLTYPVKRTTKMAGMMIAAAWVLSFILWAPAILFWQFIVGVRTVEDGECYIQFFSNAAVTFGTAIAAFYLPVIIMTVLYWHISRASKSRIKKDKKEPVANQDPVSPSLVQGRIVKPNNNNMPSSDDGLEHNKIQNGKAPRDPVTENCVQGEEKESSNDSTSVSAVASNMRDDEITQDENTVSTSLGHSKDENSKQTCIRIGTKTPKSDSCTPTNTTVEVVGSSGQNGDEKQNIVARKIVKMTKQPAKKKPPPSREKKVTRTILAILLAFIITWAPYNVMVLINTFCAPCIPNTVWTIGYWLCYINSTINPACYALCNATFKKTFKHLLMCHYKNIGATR

[5] = target: T4, Estrogen receptor (Homo sapiens, UniProt P03372)
T4 sequence (P03372 whole entry): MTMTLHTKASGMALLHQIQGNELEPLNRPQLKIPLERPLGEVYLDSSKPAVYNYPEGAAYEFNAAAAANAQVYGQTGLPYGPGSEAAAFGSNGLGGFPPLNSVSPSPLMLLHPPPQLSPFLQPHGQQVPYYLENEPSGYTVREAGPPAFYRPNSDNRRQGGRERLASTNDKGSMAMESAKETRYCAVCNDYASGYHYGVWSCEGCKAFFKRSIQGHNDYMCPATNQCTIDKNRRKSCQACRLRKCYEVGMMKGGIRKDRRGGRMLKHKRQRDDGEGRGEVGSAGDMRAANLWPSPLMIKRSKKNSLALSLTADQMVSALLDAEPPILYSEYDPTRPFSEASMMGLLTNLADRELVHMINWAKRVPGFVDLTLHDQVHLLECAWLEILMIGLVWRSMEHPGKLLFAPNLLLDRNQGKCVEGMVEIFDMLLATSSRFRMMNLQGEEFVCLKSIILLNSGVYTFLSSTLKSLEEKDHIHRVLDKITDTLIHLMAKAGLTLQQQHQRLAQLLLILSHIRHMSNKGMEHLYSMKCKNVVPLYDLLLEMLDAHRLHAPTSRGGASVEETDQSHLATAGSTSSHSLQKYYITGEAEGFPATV

[6] = target: Delta-type opioid receptor (Homo sapiens, UniProt P41143)
[7] = target: 3',5'-cyclic-AMP phosphodiesterase 4D (Homo sapiens, UniProt Q08499); type: functional
[8] = target: T5, Prostaglandin G/H synthase 1 (Rattus norvegicus, UniProt Q63921); type: functional
T5 sequence (Q63921 whole entry): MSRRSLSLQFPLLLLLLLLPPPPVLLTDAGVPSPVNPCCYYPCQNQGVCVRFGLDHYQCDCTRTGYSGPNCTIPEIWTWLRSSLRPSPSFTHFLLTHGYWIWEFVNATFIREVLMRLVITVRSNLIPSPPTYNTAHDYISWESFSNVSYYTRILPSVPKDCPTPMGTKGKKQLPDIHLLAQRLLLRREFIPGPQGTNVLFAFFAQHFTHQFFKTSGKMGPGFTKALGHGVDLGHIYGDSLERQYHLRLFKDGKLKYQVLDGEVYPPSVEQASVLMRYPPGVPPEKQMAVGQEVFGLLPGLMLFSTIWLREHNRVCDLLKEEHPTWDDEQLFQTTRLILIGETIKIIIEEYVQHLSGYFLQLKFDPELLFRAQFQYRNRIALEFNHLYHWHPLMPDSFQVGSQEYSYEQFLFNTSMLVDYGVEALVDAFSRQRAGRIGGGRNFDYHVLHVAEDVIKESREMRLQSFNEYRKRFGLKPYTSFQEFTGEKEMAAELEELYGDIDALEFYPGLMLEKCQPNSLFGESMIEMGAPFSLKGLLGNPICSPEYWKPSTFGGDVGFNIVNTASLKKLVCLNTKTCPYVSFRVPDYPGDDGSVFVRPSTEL
Further: assay procedure not described here.

3',5'-cyclic-AMP phosphodiesterase 4D, sequence (Q08499 whole entry): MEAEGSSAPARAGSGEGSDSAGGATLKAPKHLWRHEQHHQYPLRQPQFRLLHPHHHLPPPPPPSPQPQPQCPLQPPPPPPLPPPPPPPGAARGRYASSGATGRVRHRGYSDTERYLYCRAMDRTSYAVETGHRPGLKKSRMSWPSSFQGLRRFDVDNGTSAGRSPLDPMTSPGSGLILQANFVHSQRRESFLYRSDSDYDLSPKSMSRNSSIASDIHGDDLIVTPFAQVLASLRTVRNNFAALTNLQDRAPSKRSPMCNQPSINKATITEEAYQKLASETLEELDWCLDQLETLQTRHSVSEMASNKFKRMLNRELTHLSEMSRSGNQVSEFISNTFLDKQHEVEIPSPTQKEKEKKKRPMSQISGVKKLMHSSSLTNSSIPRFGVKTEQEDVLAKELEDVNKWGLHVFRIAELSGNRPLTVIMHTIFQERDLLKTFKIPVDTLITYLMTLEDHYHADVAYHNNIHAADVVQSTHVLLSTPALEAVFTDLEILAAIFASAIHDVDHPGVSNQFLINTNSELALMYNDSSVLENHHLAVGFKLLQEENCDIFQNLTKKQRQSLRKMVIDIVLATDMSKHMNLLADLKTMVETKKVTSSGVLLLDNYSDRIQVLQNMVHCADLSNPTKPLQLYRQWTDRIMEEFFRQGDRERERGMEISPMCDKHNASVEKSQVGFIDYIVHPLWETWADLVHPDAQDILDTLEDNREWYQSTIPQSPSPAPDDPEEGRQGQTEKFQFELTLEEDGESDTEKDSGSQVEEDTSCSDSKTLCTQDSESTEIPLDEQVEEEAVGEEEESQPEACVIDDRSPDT
Delta-type opioid receptor, sequence (P41143 whole entry): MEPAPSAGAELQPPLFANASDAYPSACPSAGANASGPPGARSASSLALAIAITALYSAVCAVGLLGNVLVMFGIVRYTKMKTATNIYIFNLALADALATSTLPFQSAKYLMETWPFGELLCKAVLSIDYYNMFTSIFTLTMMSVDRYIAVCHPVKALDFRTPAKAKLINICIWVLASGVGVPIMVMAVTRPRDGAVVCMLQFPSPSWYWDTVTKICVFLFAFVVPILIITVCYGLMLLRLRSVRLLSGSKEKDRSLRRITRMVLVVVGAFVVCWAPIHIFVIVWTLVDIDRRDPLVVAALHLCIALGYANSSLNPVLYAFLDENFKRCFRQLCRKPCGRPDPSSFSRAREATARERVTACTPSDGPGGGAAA

`CC1(C)O[C@@H]2[C@@H](CO[C@@]3(COS(N)(=O)=O)OC(C)(C)O[C@@H]23)O1` [TOPIRAMATE] showed an AC50 [1] greater than 10 µM, an AC50 [2] greater than 10 µM and an AC50 [3] greater than 10 µM. The AC50 [4] was greater than 10 µM, the AC50 [5] was greater than 30 µM and the AC50 [6] was greater than 10 µM. The AC50 [7] was greater than 30 µM and the AC50 [8] was greater than 30 µM.
With `CN(C)c1cc(CNCC(C)(C)C)c(O)c2c1C[C@H]1C[C@H]3[C@H](N(C)C)C(O)=C(C(N)=O)C(=O)[C@@]3(O)C(O)=C1C2=O` [OMADACYCLINE] the AC50 [1] was greater than 30 µM, the AC50 [2] was greater than 30 µM and the AC50 [3] was 29 µM. It also gave an AC50 [4] greater than 30 µM, an AC50 [5] greater than 30 µM and an AC50 [6] of 27 µM. The AC50 [7] was greater than 30 µM and the AC50 [8] was 0.645 µM.
Compound `CNC(=O)c1cc(Oc2ccc(NC(=O)Nc3ccc(Cl)c(C(F)(F)F)c3)c(F)c2)ccn1` [REGORAFENIB] has an AC50 [3] greater than 30 µM, an AC50 [4] greater than 30 µM and an AC50 [5] greater than 30 µM. It also gave an AC50 [6] greater than 30 µM, an AC50 [7] greater than 30 µM and an AC50 [8] greater than 30 µM.
`CCC(=O)O[C@@H](O[P@](=O)(CCCCc1ccccc1)CC(=O)N1C[C@H](C2CCCCC2)C[C@H]1C(=O)O)C(C)C` [FOSINOPRIL] was tested, and the AC50 [1] was greater than 30 µM, the AC50 [2] was greater than 30 µM and the AC50 [3] was greater than 30 µM. For the same compound, the AC50 [4] was greater than 30 µM, the AC50 [5] was greater than 30 µM and the AC50 [6] was greater than 30 µM. It also gave an AC50 [7] greater than 30 µM.
`CC(=O)Oc1ccccc1C(=O)Nc1ncc([N+](=O)[O-])s1` [NITAZOXANIDE] was tested, and the AC50 [1] was greater than 30 µM, the AC50 [2] was 19 µM and the AC50 [3] was greater than 30 µM. The AC50 [4] was 1.4 µM, the AC50 [5] was greater than 30 µM and the AC50 [6] was 5 µM. The AC50 [7] was greater than 30 µM and the AC50 [8] was 0.0031 µM.
Compound `O=C(O)CCCc1ccc(N(CCCl)CCCl)cc1` [CHLORAMBUCIL] has an AC50 [5] greater than 30 µM.
For `O=S(=O)(O)CCS` [2-MERCAPTOETHANESULFONIC ACID], the AC50 [5] was greater than 30 µM.
Compound `CC(C)COc1ccc(CNC(=O)N(Cc2ccc(F)cc2)C2CCN(C)CC2)cc1` [PIMAVANSERIN] has an AC50 [5] greater than 30 µM.
With `CCCCCOc1ccc(-c2cc(-c3ccc(C(=O)N[C@H]4C[C@@H](O)[C@@H](O)NC(=O)[C@@H]5[C@@H](O)[C@@H](C)CN5C(=O)[C@H]([C@H](O)CC(N)=O)NC(=O)[C@H]([C@H](O)[C@@H](O)c5ccc(O)c(OS(=O)(=O)O)c5)NC(=O)[C@@H]5C[C@@H](O)CN5C(=O)[C@H]([C@@H](C)O)NC4=O)cc3)no2)cc1` [MICAFUNGIN] (X1-[Orn(4R-OH,5R-OH)]T[Hyp][hTyr(3S-OH,4S-OH,3'-OSO3H)][Gln(3R-OH)][Pro(3S-OH,4S-Me)]; lactam 1-C) the AC50 [5] was 7.25 µM.
For `C#Cc1cccc(Nc2ncnc3cc(OCCOC)c(OCCOC)cc23)c1` [ERLOTINIB], the AC50 [1] was greater than 30 µM, the AC50 [2] was greater than 30 µM and the AC50 [3] was greater than 30 µM. The AC50 [4] was greater than 30 µM, the AC50 [5] was greater than 30 µM and the AC50 [6] was greater than 30 µM. For the same compound, the AC50 [7] was greater than 30 µM and the AC50 [8] was greater than 30 µM.
Work on `NCCc1ccc(O)cc1` [TYRAMINE] yielded an AC50 [5] greater than 30 µM.
`CN(C)CCCN1C(=O)c2cc([N+](=O)[O-])ccc2Oc2ccccc21` was tested, and the AC50 [5] was greater than 30 µM.
`C[C@]12CC[C@@H]3c4ccc(O)cc4CC[C@H]3[C@@H]1CC[C@@H]2OC(=O)CCC1CCCC1` [ESTRADIOL CYPIONATE] was tested, and the AC50 [5] was 0.379 µM.
`CC(=O)/N=c1/sc(S(N)(=O)=O)nn1C` [METHAZOLAMIDE] gave an AC50 [1] greater than 10 µM, an AC50 [2] greater than 10 µM and an AC50 [3] greater than 10 µM. It also gave an AC50 [4] greater than 10 µM, an AC50 [5] greater than 30 µM and an AC50 [6] greater than 30 µM. The AC50 [7] was greater than 30 µM and the AC50 [8] was greater than 10 µM.
Compound `CCOc1cc(N)c(Cl)cc1C(=O)NCC1CN(Cc2ccc(F)cc2)CCO1` (stereo not drawn) [MOSAPRIDE] has an AC50 [5] greater than 30 µM.
`CCOc1ccc2ccccc2c1C(=O)N[C@@H]1C(=O)N2[C@@H]1SC(C)(C)[C@@H]2C(=O)O` [NAFCILLIN] gave an AC50 [5] greater than 30 µM.
`CCCCCCCCNC(C)C(O)c1ccc(SC(C)C)cc1` (stereo not drawn) [SULOCTIDIL] gave an AC50 [5] of 16.7 µM.
